Data reported in the NIST ThermoML archive (doi:10.1021/je060271a).
Values joined by “and” are separate entries in the source; they are usually repeats but may differ in a detail not shown here. Equal entries are not always repeated.

Conditions: Liquid, Vibrating tube method

CCCCC(=O)OCC(COC(=O)CCCC)(COC(=O)CCCC)COC(=O)CCCC [pentaerythritol tetrapentanoate]
Conditions | mass density
323.15 K, 31189 kPa | 1015 kg/m3
323.15 K, 31223 kPa | 1015.1 kg/m3
323.15 K, 31256 kPa | 1015.1 kg/m3
323.15 K, 31290 kPa | 1015.1 kg/m3
323.15 K, 31330 kPa | 1015.1 kg/m3
323.15 K, 31363 kPa | 1015 kg/m3
323.15 K, 31397 kPa | 1015.2 kg/m3
323.15 K, 31438 kPa | 1015.2 kg/m3
323.15 K, 31473 kPa | 1015.2 kg/m3
323.15 K, 31507 kPa | 1015.2 kg/m3
323.15 K, 31540 kPa | 1015.3 kg/m3
323.15 K, 31581 kPa | 1015.3 kg/m3
323.15 K, 31615 kPa | 1015.4 kg/m3
323.15 K, 31649 kPa | 1015.3 kg/m3
323.15 K, 31689 kPa | 1015.3 kg/m3
323.15 K, 31724 kPa | 1015.3 kg/m3
323.15 K, 31758 kPa | 1015.3 kg/m3
323.15 K, 31794 kPa | 1015.4 kg/m3
323.15 K, 31834 kPa | 1015.5 kg/m3
323.15 K, 31869 kPa | 1015.4 kg/m3
323.15 K, 31914 kPa | 1015.4 kg/m3
323.15 K, 31941 kPa | 1015.6 kg/m3
323.15 K, 31982 kPa | 1015.4 kg/m3
323.15 K, 32017 kPa | 1015.6 kg/m3
323.15 K, 32052 kPa | 1015.6 kg/m3
323.15 K, 32093 kPa | 1015.7 kg/m3
323.15 K, 32128 kPa | 1015.6 kg/m3
323.15 K, 32170 kPa | 1015.7 kg/m3
323.15 K, 32206 kPa | 1015.7 kg/m3
323.15 K, 32240 kPa | 1015.6 kg/m3
323.15 K, 32283 kPa | 1015.7 kg/m3
323.15 K, 32318 kPa | 1015.7 kg/m3
323.15 K, 32354 kPa | 1015.8 kg/m3
323.15 K, 32398 kPa | 1015.8 kg/m3
323.15 K, 32434 kPa | 1015.8 kg/m3
323.15 K, 32470 kPa | 1015.8 kg/m3
323.15 K, 32513 kPa | 1015.7 kg/m3
323.15 K, 32550 kPa | 1015.9 kg/m3
323.15 K, 32586 kPa | 1015.9 kg/m3
323.15 K, 32623 kPa | 1015.9 kg/m3
323.15 K, 32666 kPa | 1016 kg/m3
323.15 K, 32701 kPa | 1016 kg/m3
323.15 K, 32745 kPa | 1015.9 kg/m3
323.15 K, 32782 kPa | 1016.1 kg/m3
323.15 K, 32820 kPa | 1016 kg/m3
323.15 K, 32864 kPa | 1016.1 kg/m3
323.15 K, 32902 kPa | 1016 kg/m3
323.15 K, 32939 kPa | 1016.1 kg/m3
323.15 K, 32977 kPa | 1016.1 kg/m3
323.15 K, 33022 kPa | 1016.1 kg/m3
323.15 K, 33058 kPa | 1016.2 kg/m3
323.15 K, 33096 kPa | 1016.1 kg/m3
323.15 K, 33141 kPa | 1016.2 kg/m3
323.15 K, 33179 kPa | 1016.3 kg/m3
323.15 K, 33224 kPa | 1016.3 kg/m3
323.15 K, 33262 kPa | 1016.2 kg/m3
323.15 K, 33300 kPa | 1016.2 kg/m3
323.15 K, 33338 kPa | 1016.3 kg/m3
323.15 K, 33384 kPa | 1016.4 kg/m3
323.15 K, 33423 kPa | 1016.4 kg/m3
323.15 K, 33462 kPa | 1016.3 kg/m3
323.15 K, 33508 kPa | 1016.5 kg/m3
323.15 K, 33546 kPa | 1016.4 kg/m3
323.15 K, 33593 kPa | 1016.5 kg/m3
323.15 K, 33633 kPa | 1016.5 kg/m3
323.15 K, 33672 kPa | 1016.4 kg/m3
323.15 K, 33712 kPa | 1016.4 kg/m3
323.15 K, 33760 kPa | 1016.6 kg/m3
323.15 K, 33800 kPa | 1016.5 kg/m3
323.15 K, 33841 kPa | 1016.5 kg/m3
323.15 K, 33890 kPa | 1016.6 kg/m3
323.15 K, 33934 kPa | 1016.6 kg/m3
323.15 K, 33978 kPa | 1016.7 kg/m3
323.15 K, 34031 kPa | 1016.8 kg/m3
323.15 K, 34078 kPa | 1016.7 kg/m3
323.15 K, 34125 kPa | 1016.7 kg/m3
323.15 K, 34165 kPa | 1016.8 kg/m3
323.15 K, 34193 kPa | 1016.8 kg/m3
323.15 K, 34215 kPa | 1016.8 kg/m3
323.15 K, 34242 kPa | 1016.9 kg/m3
323.15 K, 34266 kPa | 1016.9 kg/m3
323.15 K, 34294 kPa | 1016.8 kg/m3
323.15 K, 34311 kPa | 1016.8 kg/m3
323.15 K, 34334 kPa | 1016.9 kg/m3
323.15 K, 34359 kPa | 1017 kg/m3
323.15 K, 34383 kPa | 1016.9 kg/m3
323.15 K, 34414 kPa | 1017 kg/m3
323.15 K, 34441 kPa | 1016.9 kg/m3
323.15 K, 34467 kPa | 1016.9 kg/m3
323.15 K, 34492 kPa | 1017 kg/m3
323.15 K, 34493 kPa | 1017.1 kg/m3
323.15 K, 34495 kPa | 1017 kg/m3
323.15 K, 34498 kPa | 1017 kg/m3
323.15 K, 34500 kPa | 1017.1 kg/m3
323.15 K, 34502 kPa | 1017.1 kg/m3
323.15 K, 34504 kPa | 1017.1 kg/m3
323.15 K, 34507 kPa | 1017.1 kg/m3
323.15 K, 34510 kPa | 1017 kg/m3
343.14 K, 4331.4 kPa | 981.8 kg/m3
343.14 K, 4369.7 kPa | 981.9 kg/m3
343.14 K, 4403.1 kPa | 981.9 kg/m3
343.14 K, 4438.3 kPa | 981.9 kg/m3
343.14 K, 4480.3 kPa | 982 kg/m3
343.14 K, 4516.3 kPa | 982 kg/m3
343.14 K, 4553 kPa | 982.1 kg/m3
343.14 K, 4648.1 kPa | 982.1 kg/m3
343.14 K, 4649.8 kPa | 982.1 kg/m3
343.14 K, 4651.7 kPa | 982.2 kg/m3
343.14 K, 4656 kPa | 982.2 kg/m3
343.14 K, 4659.5 kPa | 982 kg/m3
343.14 K, 4659.7 kPa | 982.3 kg/m3 and 982.2 kg/m3
343.14 K, 4661.6 kPa | 982.1 kg/m3
343.14 K, 4661.9 kPa | 982 kg/m3
343.14 K, 4662.1 kPa | 982.1 kg/m3 and 982 kg/m3
343.14 K, 4662.3 kPa | 982.1 kg/m3
343.14 K, 4662.4 kPa | 982.2 kg/m3
343.14 K, 4662.6 kPa | 982.1 kg/m3
343.14 K, 4662.8 kPa | 982.1 kg/m3
343.14 K, 4663.1 kPa | 982.1 kg/m3
343.14 K, 4671.9 kPa | 982.1 kg/m3
343.14 K, 4688.2 kPa | 982 kg/m3
343.14 K, 4712.1 kPa | 982.2 kg/m3
343.14 K, 4732.7 kPa | 982.3 kg/m3
343.14 K, 4774.6 kPa | 982.2 kg/m3
343.14 K, 4799.7 kPa | 982.2 kg/m3
343.14 K, 4821 kPa | 982.3 kg/m3
343.14 K, 4842.3 kPa | 982.4 kg/m3
343.14 K, 4868.4 kPa | 982.4 kg/m3
343.14 K, 4886.2 kPa | 982.3 kg/m3
343.14 K, 4912.7 kPa | 982.3 kg/m3
343.14 K, 21139 kPa | 994 kg/m3
343.14 K, 21166 kPa | 994 kg/m3
343.14 K, 21194 kPa | 994.3 kg/m3
343.14 K, 21221 kPa | 994 kg/m3
343.14 K, 21398 kPa | 994.3 kg/m3
343.14 K, 21431 kPa | 994.3 kg/m3
343.14 K, 21460 kPa | 994.4 kg/m3
343.14 K, 21488 kPa | 994.4 kg/m3
343.14 K, 21522 kPa | 994.5 kg/m3
343.14 K, 21550 kPa | 994.3 kg/m3
343.14 K, 21578 kPa | 994.5 kg/m3
343.14 K, 21611 kPa | 994.5 kg/m3
343.14 K, 21640 kPa | 994.4 kg/m3
343.14 K, 21669 kPa | 994.4 kg/m3
343.14 K, 21702 kPa | 994.5 kg/m3
343.14 K, 21732 kPa | 994.4 kg/m3
343.14 K, 21760 kPa | 994.6 kg/m3
343.14 K, 21795 kPa | 994.6 kg/m3
343.14 K, 21825 kPa | 994.6 kg/m3
343.14 K, 21856 kPa | 994.6 kg/m3
343.14 K, 21885 kPa | 994.7 kg/m3
343.14 K, 21920 kPa | 994.7 kg/m3
343.14 K, 21949 kPa | 994.6 kg/m3
343.14 K, 21979 kPa | 994.6 kg/m3
343.14 K, 22008 kPa | 994.7 kg/m3
343.14 K, 22044 kPa | 994.8 kg/m3
343.14 K, 22073 kPa | 994.7 kg/m3
343.14 K, 22109 kPa | 994.9 kg/m3
343.14 K, 22139 kPa | 994.8 kg/m3
343.14 K, 22169 kPa | 994.8 kg/m3
